Reference: patent US20240245770A1, “COMPOSITIONS AND METHODS FOR TREATING NEUROMUSCULAR DISORDERS” (The Regents of the University of California, priority 2019, published 2024)

Assays:
[1] = tested on: Oral squamous carcinoma cells (OSCCs) and Oral squamous stem cell carcinoma (OSCSCs); experiment: NAC blocking of CDDP mediated cell death (PI staining, flow cytometry); assay type: cell-based, human; details: OSCC compared with OSCSCs, 24 hours
Procedure: Testing and selection of the best NAC to be used in ALS treatment. […] Afterwards OSCCs and OSCSCs were detached, and the viability of cells was determined after PI staining followed by flow cytometric analysis. In this figure Forward and Side Scatters (Fs/ss) were assessed since decrease in the Fs/ss is seen in cells undergoing cell death.
Testing and selection of the best NAC to be used in ALS treatment. […] Afterwards OSCCs and OSCSCs were detached, and the viability of cells was determined after PI staining followed by flow cytometric analysis. In this figure the percentage of PI stained cells were assessed.

[2] = tested on: OSCSCs; experiment: NAC blocking of H2O2 mediated cell death in OSCSCs; assay type: cell-based, human; details: NAC 20 mM, 24 hours, FIG. 68
[3] = tested on: Dental Pulp Stromal Cells (DPSCs); experiment: NAC blocking of H2O2 mediated cell death in DPSCs; assay type: cell-based, human; details: NAC 20 mM, 24 hours, FIG. 67
Procedure: Testing and selection of the best NAC to be used in ALS treatment. […] Afterwards DPSCs were detached, and the viability of cells was determined after PI staining followed by flow cytometric analysis. In this figure the decrease in FS/ss and the percentage of PI stained cells were assessed.

[4] = tested on: ALS; details: cited from earlier work

[NH2][Pt]([NH2])([Cl])[Cl] [CDDP, Cisplatin]
cell death induced by CDDP [1]: induces more of the cell death in OSCC than in OSCSCs

CC(=O)N[C@@H](CS)C(=O)O [NAC-M]
H2O2 mediated cell death (Fs/ss and PI positive cells) [2]: able to inhibit H2O2 mediated cell death effectively | H2O2 mediated cell death (Fs/ss and PI positive cells) [3]: able to inhibit H2O2 mediated cell death effectively

Nc1nc2ccc(OC(F)(F)F)cc2s1 [Riluzole]
extension of life [4]: about two to three
